In US11932623B2, “Uracil compounds and use thereof” (Sumitomo Chemical Company, Limited, priority 2018, dated 2024):

Columns and labels:
Assay type in all cases: in vivo
corn = experiment: Test Example 1: post-emergence foliar spray pot test, safety against useful plants (phytotoxicity); details: for Corn (phytotoxicity score): foliar spray 204 L/ha on plants grown 15 days, assessed after 11 days in greenhouse
Text: Further, Test Examples are used to show an efficacy of the compound A on controlling weeds and safety against useful plants (phytotoxicity)
(§1) In the Test Examples as described below, for the assessment of weeds-controlling efficacy, the efficacy is defined as “0” if the condition of budding or growth of test pants in the treated area indicates little or no difference compared to that of the untreated area at the time of the investigation.
(§2) The “untreated group” represents a group where a similar treatment procedure to that of the treated group except not using the compound A is done.
(§3) A plastic pot was filled with soil. Ivyleaf morning glory (Ipomoea hederacea), Redroot pigweed (Amaranthus retroflexus) and corn were seeded to the plastic pot, and the plants are grown in a greenhouse for 15 days. A prescribed amount of the formulation prepared by the method of the formulation example 1 was diluted with water containing 1% of Agridex (registered trademark) to obtain a diluted solution. The diluted solution was uniformly sprayed at a rate of 204 L/ha from the upper side of the plants such that the applied dose of the compound A was made to 20 gai/ha or 10 gai/ha. Thereafter, the plants were grown in a greenhouse for 11 days, and the control efficacies were assessed by the above-mentioned method. The results are shown in [Table 1].
(§4) The comparative test was conducted by using the compound B in place of the compound A according to a similar method to that described in the Test example 1.

[1] = tested on: Redroot pigweed (Amaranthus retroflexus); experiment: Test Example 1: post-emergence foliar spray pot test, weed control efficacy; details: for efficacy on controlling weeds against Redroot pigweed (Amaranthus retroflexus), in words: 20 or 10 gai/ha; for control efficacy, Amaranthus retroflexus: foliar spray 204 L/ha on plants grown 15 days, assessed after 11 days in greenhouse
Text: as §1, §2, §3, §4

[2] = tested on: Ivyleaf morning glory (Ipomoea hederacea); experiment: as above; details: for efficacy on controlling weeds against Ivyleaf morning glory (Ipomoea hederacea), in words: 20 or 10 gai/ha; for control efficacy, Ipomoea hederacea: foliar spray 204 L/ha on plants grown 15 days, assessed after 11 days in greenhouse, scale 0 to 100 (all dead)
Text: as §1, §2, §3, §4

[3] = applied dose 10 gai/ha, scale 0 to 100 (all dead)
[4] = applied dose 20 gai/ha, scale 0 (no difference to untreated) to 100 (all dead)

Row | Structure (SMILES) | phytotoxicity against corn, in words (corn; in vivo) | efficacy on controlling weeds against Redroot pigweed (Amaranthus retroflexus), in words [1] | control efficacy, Amaranthus retroflexus [1, 3] | control efficacy, Amaranthus retroflexus [1, 4] | efficacy on controlling weeds against Ivyleaf morning glory (Ipomoea hederacea), in words [2] | control efficacy, Ipomoea hederacea ([2]; applied dose 10 gai/ha) | control efficacy, Ipomoea hederacea ([2]; applied dose 20 gai/ha) | phytotoxicity against corn, in words (corn; 20 or 10 gai/ha) | Corn (phytotoxicity score) (corn; [3]) | Corn (phytotoxicity score) (corn; [4])
1 | CCOC(=O)COc1ncccc1Oc1cc(-n2c(=O)cc(C(F)(F)F)n(C)c2=O)c(Cl)cc1Cl [Compound A] | low phytotoxicity | high efficacies | 100 | 100 | high efficacies | 100 | 100 |  |  | 
2 | CCOC(=O)COc1ncccc1Oc1cc(-n2c(=O)cc(C(F)(F)F)n(C)c2=O)c(F)cc1Cl [Compound B] |  | high efficacies | 100 | 100 | high efficacies | 100 | 100 | high phytotoxicity | 100 | 100
